These results are taken from patent publication US20250041624A1, “METHOD FOR ENHANCING ACTIVITY OF PHOTOSENSITIZER BY MAGNETIC FIELD” (PEKING UNIVERSITY, priority 2021, published 2025).

One test deals with HeLa cells. Briefly: H2DCFDA fluorescence imaging of intracellular oxidation in HeLa cells. Conditions: RB 30 μmol/L, FIG. 11. It is filed as cell-based. How it is done: (1) HeLa cells are seeded on sterile glass coverslips and placed in DMEM (comprising FBS) plates for 12 h. Then appropriate amount of 30 μmol/L RB or 0.01 mol/L PBS buffer is added, respectively. After 24 h in dark, H2DCFDA (dichlorofluorescein diacetate, ≥97%, purchased from Sigma-Aldrich) is added to give final concentration of 10 μmol/L and cells are incubated for another 30 min, and then are washed 3 times with PBS buffer.
Said HeLa cells are placed under the magnetic field conditions of 0 mT, 250 mT, 800 mT, respectively, without irradiation or with 10 min light (561 nm, 5 mW·cm^−2). Fluorescence images are obtained using Nikon A1R-si laser scanning confocal microscopy (488 nm excitation, 515±15 nm received fluorescence), where H2DCFDA is the indicator that reacts with cellular singlet oxygen ^1O2 to increase fluorescence emission intensity (excitation wavelength is 504 nm, and emission wavelength is 529 nm).
The change rate of fluorescence intensity in Hela cells added with RB under the conditions of light and magnetic field at 0, 250 or 800 mT is shown in FIG. 12. The change rate of fluorescence intensity is (IB−I0)/I0×100%, IB is the fluorescence intensity at magnetic field strength of B, and I0 is the fluorescence intensity without magnetic field. In FIG. 12, ** is the statistical probability p<0.01; *** is p<0.005, and p<0.05 is considered significant.

Test [1] can be described thus: Reaction rate of KI with 1O2 (I3− absorbance at 350 nm) under light and magnetic field. The format is physicochemical. The procedure:
(1) The photosensitizers Rose Bengal (RB) and potassium iodide KI are dissolved in water, with the concentrations of photosensitizer and KI is 10 μmol/L and 10 mmol/L, respectively in the resulting solution. […] The above UV-vis absorption spectra tests are performed in the strength range of the magnetic field from 0 to 850 mT respectively.
(2) The photosensitizer chlorin e6 (Ce6, Chlorin e6) and potassium iodide KI are dissolved in water, with the concentrations of the photosensitizer and KI of 10 μmol/L and 10 mmol/L in the resulting solutions. In a magnetic field with certain strength, the solutions are exposed to a 635 nm LED lamp (light emitting diode) at a power of 5 mW·cm^−2, and tested for absorption spectra every 15 seconds over 5 min, and the absorbance at 350 nm is recorded to obtain absorbance versus time curves. The above UV-vis absorption spectra are obtained at a magnetic field strength range from 0 to 850 mT, respectively.
External magnetic field is supplied by East Transformer (Beijing) EM4 electromagnets. Ultraviolet-visible absorption spectra are tested with Agilent 8453 UV/Visible spectrometer equipped with Agilent 89090A thermostat (±0.1° C.).
Under irradiation conditions, photosensitizer is excited to produce singlet oxygen ^1O2, and KI reacts with ^1O2 to give I2 and target detector, iodine triion I3^−, characterized by absorption bands centered at 300 and 350 nm in UV-vis absorption spectrum. The reaction rate is R, which is proportional to the slope of absorbance-time curve of iodine triion I3^− at 350 nm.
In the present invention, the magnetic field effects (MFEs) is quantified by mfeR, the change rate of the reaction rate R, mfeR=(RB−R0)/R0×100%, where R0 is the reaction rate at a magnetic field strength of 0 mT and RB is the reaction rate at a magnetic field strength of B mT.
(3) The RB/KI solution in experiment (1) of this Example is placed in a magnetic field modulated with square wave (90 s for the first period, a magnetic field strength of 0 mT for the first 45 s and 100 mT for the last 45 s; 60 s for the last three cycles, a magnetic field strength of 0 mT for the first 30 s and 100 mT for the last 30 s). Under 561 nm LED (Light Emitting Diode) irradiation with 5 mW·cm^−2, absorption spectra are tested every 5 seconds over 5 min. and the absorbance at 350 nm is recorded, to obtain an absorbance-time curve, as shown in FIG. 6.

Molecules are shown by their SMILES.

`O=C1OC2(c3cc(I)c(O)c(I)c3Oc3c2cc(I)c(O)c3I)c2c(Cl)c(Cl)c(Cl)c(Cl)c21` [RB, Rose Bengal]: the “fluorescence intensity of HeLa cells (H2DCFDA)” value in the test on HeLa cells (absence of magnetic field, vs PBS) is “stronger than that with PBS”; in the test on HeLa cells (irradiation 561 nm 10 min and 250 mT), “stronger than those under the absence of magnetic field and the magnetic field of 800 mT”. For the same compound, the “mfeR (change rate of reaction rate R of KI with 1O2)” value in test [1] (RB 10 μmol/L, KI 10 mmol/L, 561 nm 5 mW·cm−2, maximum at MF=80-135 mT) is on record as 46%; in test [1] (RB 10 μmol/L, KI 10 mmol/L, 561 nm 5 mW·cm−2, minimum at MF=14 mT), 33%; in test [1] (RB, MF from 34 to 355 mT, FIG. 5) it was over 0%; in test [1] (RB, MF from 50 to 220 mT, FIG. 5) it was over 20%. For the same compound, in test [1] (RB/KI, square-wave modulated field, 100 mT vs 0 mT, FIG. 7), the “increase of R value on average compared to 0 mT” value is reported as “about 45%”.
